From patent US4318916A, “Antibiotic PS-5 and derivatives having β-lactamase inhibitory activity and production thereof” (Sanraku-Ocean Co., Ltd., priority 1977, dated 1982) come the findings set out here.

pIC50: −log10 of the molar value. ≈ marks a conversion by molar mass, not a printed value. Like-named read-outs stand apart in the source and are kept apart here.

For data set [1], the system named is Staphylococcus aureus Smith. The data set can be described thus: Therapeutic activity of antibiotic PS-5 sodium salt in infected mice. The following applies: mice infected with pathogenic Gram-positive bacteria. The class given is in vivo. The text has this:
The therapeutic activity of the antibiotic PS-5 sodium salt was studied by treating mice intraperitoneally infected with 5×10^5 cells/mouse of Staphylococcus aureus Smith. Soon after the infection, an aqueous solution of the antibiotic PS-5 sodium salt was subcutaneously injected.

The test system of data set [2] is Enterobacter aerogenes E-19. As to the kind of experiment: MIC by broth dilution (Table 13). The class given is cell-based. Conditions: Klebsiella aerogenes, E19, 20 h. As to the method: (§1) The MIC (minimum inhibitory concentration) values of the compound were determined on various pathogenic microorganisms including several resistant strains, utilizing the broth dilution method in BRAIN HEART INFUSION BROTH `Eiken` (EIKEN CHEMICAL CO., LTD.).
(§2) The results were read after incubation at 35° C. for 20 hours. The minimum inhibitory concentration (MIC) values means the lowest concentration unit of the tritylation product of the antibiotic PS-5 was no growth of the corresponding microorganism was observed under the above described conditions. As the control antibiotics,the solutions of ampicillin and cephaloridine were prepared in BRAIN HEART INFUSION BROTH `Eiken` (pH 7.0) at a concentration of 100 μg/ml and treated same as the test compound of the present invention.

Data set [3] relates to Enterobacter cloacae E-16. The data set can be described thus: MIC by broth dilution (Table 13). It counts as cell-based. Conditions: E16, 20 h. As to the method: as §1, §2
On the technique in general: Dilution methods test growth across graded concentrations, often in twofold steps.

Another data set has as its system Serratia marcescens S-18. The data set can be described thus: MIC by broth dilution (Table 13). The class given is cell-based. Conditions: S18, 20 h. The protocol:
as §1, §2

The subject of data set [4] is Staphylococcus aureus Smith. As to the kind of experiment: In vivo activity of trityl ester in infected mice. As to the method:
The in vivo activity of the tritylation product of the antibiotic PS-5 was measured in mice intraperitoneally infected with 5×10^3 cells/mouse of Staphylococcus aureus Smith. The trityl ester of the antibiotic PS-5 was subcutaneously injected just after infection.

In data set [5] the target is Beta-lactamase from Citrobacter freundii E-9 (Citrobacter freundii, UniProt P05193). As to the kind of experiment: Beta-lactamase inhibition, hydrolysis of cephaloridine (I50 CER). The following applies: Citrobacter freundii E-9 beta-lactamase; cephaloridine substrate; 15 minutes preincubation at 30° C. It counts as biochemical. The protocol:
The I50^CER value of hydrolysis of cephaloridine by beta-lactamasefor 10 minutes (from one minute to ten minutes after the incubation is started). The rate of hydrolysis of cephaloridine is measured by the decrease of optical density at […]. For routine inhibition assays, beta-lactamase of Citrobacter freundii E-9 and Proteus vulgaris P-5 were employed after purification by affinity chromatography with cephalexin-Sepharose 4B.
Buffer: 0.1 M phosphate buffer (Na-K phosphate) (pH 6.8)
Substrate: 0.05 micromole/ml in phosphate buffer
Beta-lactamase: The enzyme was diluted enough to give a fall of ca. 0.1 optical density unit per 10 minutes at 255 mμ in the absence of an inhibitor. (Apparatus: Hitachi Spectrophotometer UV-VIS 139, Hitachi, Ltd.).
(This can hold one control cuvette and three sample cuvettes. Four 1 cm quarz cuvettes (3 ml in volume) were employed. The temperature was maintained at 30° C. during the reaction). […]
After pre-incubation, the substrate solution (pre-warmed at 30° C.; 3.0 ml) was added and quickly mixed to start the reaction. […] The value of I50^CER (μg/ml) was determined by diluting the inhibitor untill the dilution gave 50% of the rate of hydrolysis of cephaloridine recorded in the no-inhibitor control for 10 minutes (from 1 minute to 11 minutes after the substrate was added).

Data set [6] in a line: pH and heat stability of trityl ester of antibiotic PS-5. The class given is physicochemical. The following applies: for remaining at 0.5 h: phosphate buffer, read-out: Residual activity. As to the method:
The trityl ester of antibiotic PS-5 was dissolved in one volume of methanol and then diluted with 9 volumes of distilled water as soon as possible to provide a solution of 125 CCU/ml. A tenth molar dipotassium phosphate solution was adjusted with 5 N phosphoric acid or 5 N sodium hydroxide to the indicated pH's in the range of 3-9.
To one milliliter each of the phosphate buffers, one milliliter each of the said solution of the trityl ester of antibiotic PS-5 was added and, if necessary, the pH value of the mixture was readjusted with phosphoric acid or sodium hydroxyde to the desired pH value. […]
The control solution (pH 7.0) was kept in an ice bath for the experimental period. The residual antibiotic activity was assayed by the routine disc assay method with Comamonas terrigena B-996 as the test microorganism.

Data set [7] deals with Comamonas terrigena B-996. As to the kind of experiment: Disc bio-assay of antimicrobial activity, cephaloridine equivalent units. The class given is cell-based. Conditions: Comamonas-cephaloridine units per mg of the final purified preparation. As to the method: The overnight culture of Comamonas terrigena B-996 on a nutrient agar slant was suspended in nutrient broth so as to give an optical cell density of 0.040 at 610 nm.
The seed suspension was added in a 1% amount to a molten agar medium containing 0.8% Kyokuto Nutrient Broth Powder (Kyokuto Pharmaceutical Industries Co.) and 1.0% Bacto-Agar (Difco Laboratories). Seven milliliters of the seeded molten agar medium were distributed in a Petri dish (9 cm in diameter) and solidified). This is defined as a Comamonas assay plate.
An 8 mm pulp disc was usually soaked with a sample solution to be assayed, left on a clean sheet of filter paper for a sufficient time to remove the excess solution and then transferred onto an assay plate. After incubation at 35° C. for 20 hours, the diameter of the observed inhibition zone was measured and compared with standard solutions of cephaloridine. The antimicrobial activity of the antibiotic PS-5 and related compounds is expressed as cephaloridine equivalent units/ml.
As well known to those skilled in the art, the assay standard curve varies to some extent, depending on the species of the test microorganisms. […]

Chain of Beta-lactamase from Citrobacter freundii E-9 (P05193 21-381): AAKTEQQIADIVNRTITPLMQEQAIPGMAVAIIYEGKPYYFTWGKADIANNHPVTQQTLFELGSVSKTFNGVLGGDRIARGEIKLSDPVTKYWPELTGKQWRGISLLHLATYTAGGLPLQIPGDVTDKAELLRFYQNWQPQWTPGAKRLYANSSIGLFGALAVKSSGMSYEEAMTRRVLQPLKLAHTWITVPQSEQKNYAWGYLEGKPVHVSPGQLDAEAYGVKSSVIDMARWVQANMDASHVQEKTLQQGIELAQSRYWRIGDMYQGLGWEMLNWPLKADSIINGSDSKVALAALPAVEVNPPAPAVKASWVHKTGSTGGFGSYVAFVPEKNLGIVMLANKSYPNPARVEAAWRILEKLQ

On to `CCC1C(=O)N2C(C(=O)O)=C(SCCNC(C)=O)CC12` (single isomer, unassigned) [Antibiotic PS-5], for which the “Therapeutic effect in infected mice” value in data set [1] was “marked therapeutic effect”.
As to `CCC1C(=O)N2C(C(=O)OC(c3ccccc3)(c3ccccc3)c3ccccc3)=C(SCCNC(C)=O)CC12` (single isomer, unassigned) [Trityl PS-5], the results for the MIC (in data set [2]; in data set [3]; against Serratia marcescens S-18) were 8.7 µg/mL (≈ 16.1 µM), 10 µg/mL (≈ 18.5 µM) and 10 µg/mL (≈ 18.5 µM), respectively. The 50% curative dose in data set [4] (male ddy mice, Staphylococcus aureus Smith, subcutaneous, in Comamonas-cephaloridine units) is recorded as 27,540 CCU/kg. Further, in data set [4] (mice infected with a pathogenic Gram-positive bacteria), the “Therapeutic effect in infected mice” value is “marked therapeutic effect”. Further, the ED50 in data set [4] (sc, male ddy mice infected i.p. with 5×10^3 cells/mouse Staphylococcus aureus Smith, subcutaneously injected just after infection, read-out: 50% curative dose) came out at 2.55 mg/kg. In addition, the pIC50 in data set [5] was 5.83. Besides, the Loss of activity result in data set [6] (aqueous solution, pH 7.5 for 90 minutes at 60° C.) is given as “no substantial loss of activity”. The remaining at 0.5 h in data set [6] (pH 3.0, 60° C. for 30 minutes, percent of control) came out at 0%; in data set [6] (pH 4.0, 60° C. for 30 minutes), 0%; in data set [6] (pH 5.0, 60° C. for 30 minutes) it was 6.5%; in data set [6] (pH 6.0, 60° C. for 30 minutes) it was 79%; in data set [6] (pH 7.0, 60° C. for 30 minutes), 100%; in data set [6] (pH 8.0, 60° C. for 30 minutes) it was 100%. Further, in data set [6] (pH 9.0, 60° C. for 30 minutes), the remaining at 0.5 h was 100%. Besides, the Specific activity in data set [7] is 10,800 CCU/mg.

The term MIC denotes the smallest concentration in the dilution series that meets the test's criterion for growth inhibition. A higher MIC goes with a need for much substance. One may read the pIC50 as the IC50 on a negative log10 scale, so that one unit is a factor of ten.
